In patent publication US9739734B2, “Methods and systems of detecting exocytosis of a target molecule from a population of cells” (THE MARINE […], priority 2013, dated 2017):

Test system: pancreatic islet
Test: Impedance analysis of a pancreatic islet for insulin exocytosis (single frequency, real-time)
Assay type: cell-based
Text: In one embodiment, the method can be used to measure exocytosis of a molecule from an islet of cells. […] In one embodiment, islets can be modeled by 4 passive elements as in the equivalent electric circuit, where RMEM and CMEM represent the sum of the plasma membrane (MEM) resistances (R) and capacitances (C), and RCYT and RINT represent the sum of cytosolic (CYT) and intercellular space (INT) resistances, for all cells in the islet, respectively (FIG. 1B). AC currents applied across a whole islet result in voltage drops across these 4 elements, which are dependent, in part, on the AC frequency and the impedance (Z) of these elements (V=I(ZR(MEM+CYT+INT)+ZC(MEM)). ZC(MEM) and ZR(MEM) are generally sensitive to the level of an applied secretagogue (e.g., glucose), which at stimulatory levels decrease the RMEM, via opening of ion channels, and increase CMEM, via surface area increase reflective of exocytosis. Separation of the measured AC voltage into real (in phase with current) and imaginary (out of phase with current) components for 2 different frequencies can provide direct determination of RMEM, CMEM, RCYT and RINT through generation of 4 separate equations.
In order to optimize the resolution for monitoring changes in CMEM, an appropriate AC current can be applied at selected frequencies where the measured voltage drop across CMEM is readily detectable (e.g., where the measured voltage drop cross CMEM changes the most) during exocytosis. […] CIP can provide visualization of the changes in plasma membrane capacitance (PMc) over the range of applied frequencies, and thus the frequencies (e.g., 2 frequencies) at which the largest changes (e.g., the two largest changes) in plasma membrane capacitance can be determined as optimal AC frequencies.
The two optimal AC frequencies are then applied simultaneously to islets, e.g., according to the block diagram in FIG. 2. […] The computer can be used to compute, track and store the values of the passive elements of the equivalent circuit corresponding to the islet being measured. […]

Structure (SMILES): [Cl-].[K+] [KCl, potassium chloride]
- exocytosis of insulin from cells in the islet (shift in complex impedance plot) (25 mM KCl, before vs after addition, one frequency, FIG. 3): substantial exocytosis of insulin
- change in whole islet capacitance (imaginary component of impedance) (KCl final concentration 25 mM, single frequency ~1250 Hz, time series, FIG. 4B): immediate change in whole islet capacitance
- change in whole islet resistance (real component of impedance) (KCl final concentration 25 mM, single frequency, time series, FIG. 4A): not whole islet resistance
